Experimental data: patent US9790496B2, “Microrna compounds and methods for modulating MIR-21 activity” (Regulus Therapeutics, Inc., priority 2011, dated 2017)
“And” between values parts separate entries of the source, which are not always exact repeats. Equal entries are not always repeated. Strand notation (5' to 3'): a small letter for the sugar, then the base; units joined by * are phosphorothioate-linked, units joined directly phosphodiester-linked; [ ] holds rarer units or linkages, { } end groups; capitals alone tell only the bases. e = 2'-O-(2-methoxyethyl) (MOE); l = locked nucleic acid (LNA); k = constrained ethyl (cEt); [5mC] = 5-methylcytosine; d = 2'-deoxy (DNA)

Assays:
[1] = system: collagen 1A1 and collagen 3A1 expression in kidney, unilateral ureteral obstruction (UUO) model; experiment: UUO model of kidney fibrosis: kidney collagen 1A1 and collagen 3A1 expression by real-time PCR; assay type: in vivo, mice; conditions: for Collagen 1A1 (Normalized Expression), individual animal / Collagen 3A1 (Normalized Expression), individual animal: UUO, 20 mg/kg at days -3, -1, +5 (prophylactic), kidney at day 11, real-time PCR normalized to GAPDH then sham, 20 mg/kg; for reduction in collagen expression (in words): meta-analysis of repeated UUO studies, 20 mg/kg at days -3, -1, +5
Method: Unilateral ureteral obstruction (UUO) is a well-established experimental model of renal injury leading to interstitial fibrosis, and thus is used as an experimental model that is reflective of human kidney disease. UUO is induced by surgically ligating a single ureter. As fibrosis is characterized by an increase in collagen, the presence and extent of kidney fibrosis may be determined by measuring collagen content. Both collagen 1A1 (Col 1A1) and collagen 3A1 (Col 3A1) are measured to assess collagen content. Kidney fibrosis may be visualized by staining tissue samples with picro-sirius red to detect increases in collagen content. Kidney fibrosis may also be observed by measuring the amount of hydroxyproline, which is a major component of collagen, in a sample.
The cEt-containing anti-miR-21 compounds found to be active in the luciferase assay were tested in the UUO model of kidney fibrosis. 25919 comprising 2′-MOE and 2′-fluoro modifications is known to inhibit miR-21 activity in vivo and was included as a positive control. Groups of 8 animals each were treated as follows: UUO only, UUO with PBS, or UUO with anti-miR-21 compound. Relative to the day of the UUO procedure, PBS or anti-miR-21 compound was administered at days −3, −1, and +5. Anti-miR-21 compounds were administered at a dose of 20 mg/kg. As the anti-miR compounds were administered prior to the UUO procedure, this dosing regimen is considered a prophylactic treatment. At day 11, animals were sacrificed and kidney was isolated for measurement of collagen expression. Collagen expression was measured by real-time PCR and normalized first to GAPDH and then to the sham control animals. […]

miR-21 = miR-21 luciferase sensor assay in Hela cells; assay type: cell-based; conditions: for luciferase value normalized to beta-galactosidase activity / inhibition of miR-21 in the luciferase assay (in words): Hela cells
Method: The compounds were assessed for miR-21 inhibitory activity in a luciferase assay. A microRNA luciferase sensor construct was engineered using pGL3-MCS2 (Promega). The construct was introduced into Hela cells to test the ability of anti-miR compounds to inhibit activity of miR-21. In this assay, miR-21 present in the Hela cells binds to its cognate site(s) in the luciferase sensor construct, and suppresses luciferase expression. When the appropriate anti-miR is introduced into the cells, it binds to miR-21 and relieves suppression of luciferase expression. Thus, in this assay anti-miRs that are effective inhibitors of miR-21 expression will cause an increase in luciferase expression.
Day 1: Hela cells (ATCC), stably transfected with a luciferase construct engineered to contain a sequence complementary of miR-21, were seeded in T-170 flasks (BD Falcon) at 3.5*10^6 cells/flask. Hela cells were grown in Dulbecco's Modified Eagle Medium with High Glucose (Invitrogen).
Day 2: Each flask of Hela cells was transfected with 0.5 ug of a phRL sensor plasmid (Promega) expressing Renilla to be used in normalization. Hela cells were transfected using 20 ul Lipofectamine 2000/flask (Invitrogen). After 4 hours of transfection, cells were washed with PBS and trypsinized. Hela cells were plated at 40 k/well in 24 well plates (BD Falcon) and left overnight.
Day 3: Hela cells were transfected with anti-miRs using Lipofectin (Invitrogen) at 2.5 ul Lipofectin/100 nM ASO/ml Opti-MEM I Reduced Serum Medium (Invitrogen) for 4 hours. After ASO transfection, Hela cells were refed with Dulbecco's Modified Eagle Medium with High Glucose (Invitrogen).
Day 4: Hela cells are passively lysed and luciferase activity measured using the Dual-Luciferase Reporter Assay System (Promega).
The luciferase assay was performed to test the ability of anti-miRs with the nucleoside patterns described herein to inhibit the activity of miR-21. Results were compared to a ‘mock’ treatment, in which cells received no anti-miR treatment. The experiment was repeated and results of two experimental replicates are shown in the following Table B, as the luciferase value normalized to beta-galactosidase activity.
The luciferase assay was performed as described herein to test the ability of anti-miRs in Table F to inhibit the activity of miR-21. Results were compared to a ‘mock’ treatment, in which cells received no anti-miR treatment. The experiment was repeated and results of two experimental replicates are shown in the following Table D, as fold change in luciferase value relative to the mock treatment.

[2] = 4 nM oligonucleotide, mock transfection 50
[3] = 20 nM oligonucleotide, mock transfection 47
[4] = .16 nM oligonucleotide, mock transfection 45
[5] = .8 nM oligonucleotide, mock transfection 33
[6] = concentration of anti-miR compound 0.2 (unit not given)
[7] = concentration of anti-miR compound 0.6 (unit not given)
[8] = concentration of anti-miR compound 1.9 (unit not given)
[9] = concentration of anti-miR compound 5.6 (unit not given)
[10] = concentration of anti-miR compound 16.7 (unit not given)
[11] = concentration of anti-miR compound 50.0 (unit not given)
[12] = 100 nM oligonucleotide, mock transfection 40
[13] = 500 nM oligonucleotide, mock transfection 39

Molecule | luciferase value normalized to beta-galactosidase activity (miR-21; [2]) | luciferase value normalized to beta-galactosidase activity (miR-21; [3]) | luciferase value normalized to beta-galactosidase activity (miR-21; [4]) | luciferase value normalized to beta-galactosidase activity (miR-21; [5]) | inhibition of miR-21 in the luciferase assay (in words) (miR-21) | fold change in luciferase value relative to the mock treatment (miR-21; [6]) | fold change in luciferase value relative to the mock treatment (miR-21; [7]) | fold change in luciferase value relative to the mock treatment (miR-21; [8]) | fold change in luciferase value relative to the mock treatment (miR-21; [9]) | fold change in luciferase value relative to the mock treatment (miR-21; [10]) | fold change in luciferase value relative to the mock treatment (miR-21; [11]) | luciferase value normalized to beta-galactosidase activity (miR-21; [12]) | luciferase value normalized to beta-galactosidase activity (miR-21; [13]) | also measured
CCCCC1=NC2(CCCC2)C(=O)N1Cc1ccc(-c2ccccc2-c2nnn[nH]2)cc1 [irbesartan, reference compound] | – | – | – | – | – | – | – | – | – | – | – | – | – | reduction in Col3a1 expression (in words) ([1]; UUO comparison with irbesartan, 25070 s.c. 20 mg/kg days -5, -2, +3, irbesartan perorally daily days 0-7, day 10): statistically significant reductions; reduction in Col1A1 expression relative to saline-treated animals (in words) ([1]; UUO comparison with irbesartan, 25070 s.c. 20 mg/kg days -5, -2, +3, irbesartan perorally daily days 0-7, day 10, p<0.05 one-way ANOVA): did not yield a statistically significant reduction
AECSAETECSAEGETECSTEGEAEUSAEAEGECSTEAE (ACATCAGTCTGATAAGCTA; S-cEt/2'-MOE, phosphorothioate, chemistry not fully specified) [Compound 25072] | 76 | 86 | 40 | 49 | demonstrated inhibition of miR-21 in a dose-dependent manner | – | – | – | – | – | – | – | – | Collagen 1A1 (Normalized Expression), individual animal [1]: 96.2 and 85.7 and 127.4 and 100.0 and 159.2 and 120.5 and 108.0; Collagen 3A1 (Normalized Expression), individual animal [1]: 69.4 and 54.5 and 58.8 and 69.2 and 93.8 and 65.8 and 46.9; reduction in collagen expression (in words) [1]: did not consistently demonstrate a reduction in collagen expression
AE^MeCLAETE^MeCLAEGETE^MeCLTEGEAE^MeTLAEAEGE^MeCLTEAE (antisense eA*l[5mC]*eA*eT*l[5mC]*eA*eG*eT*l[5mC]*eT*eG*eA*lT*eA*eA*eG*l[5mC]*eT*eA) [Compound 25117, LNA variant: each non-bicyclic nucleoside is 2'-MOE, each cytosine 5-methyl cytosine] | – | – | – | – | – | 1.05 | 1.15 | 1.14 | 3.64 | 7.36 | 2.91 | – | – | –
AE^MeCSAETE^MeCSAEGETE^MeCSTEGEAE^MeTSAEAEGE^MeCSTEAE (antisense eA*k[5mC]*eA*eT*k[5mC]*eA*eG*eT*k[5mC]*eT*eG*eA*kT*eA*eA*eG*k[5mC]*eT*eA; further chemistry not given here) [Compound 25116, 25070 variant: each non-bicyclic nucleoside is 2'-MOE, each cytosine 5-methyl cytosine] | – | – | – | – | – | 1.06 | 0.98 | 1.06 | 2.47 | 5.64 | 1.98 | – | – | –
AE^MeCSAT^MeCSAGT^MeCSTGATSAAG^MeCSTAE (antisense ACATCAGTCTGATAAGCTA; modified nucleosides coded in name, code key not given here) [Compound 25922, 25070 variant: each cytosine is a 5-methyl cytosine] | – | – | – | – | demonstrated inhibition of miR-21 in a dose-dependent manner | 1.02 | 1.10 | 1.34 | 8.81 | 11.60 | 11.46 | – | – | –
AE^MeCSAT^MeCSAGT^MeCSTGATSAAG^MeCSTAS (antisense eA*k[5mC]*dA*dT*k[5mC]*dA*dG*dT*k[5mC]*dT*dG*dA*kT*dA*dA*dG*k[5mC]*dT*kA) [Compound 25924, 25070 variant: 3'-terminal cEt nucleoside and each cytosine is a 5-methyl cytosine] | – | – | – | – | demonstrated inhibition of miR-21 in a dose-dependent manner | 1.10 | 1.25 | 1.37 | 7.80 | 13.01 | 8.99 | – | – | –
AeTe^MeCeASGSTe^MeCeTeGSASTeAeASGS^MeCeTeAe [Compound 25077] | 45 | 33 | 34 | 33 | – | – | – | – | – | – | – | 42 | 40 | –
AeTe^MeCeAeGeTe^MeCeTeGSAsTeASASGe^MeCeUSAS [Compound 25731] | 32 | 39 | 34 | 45 | – | – | – | – | – | – | – | 38 | 59 | –
Ae^MeCAST^MeCAGST^MeCTGASTASAGS^MeCTAe (ACATCAGTCTGATAAGCTA; all C 5-methyl, all phosphorothioate, sugars by position not given here; further chemistry not fully specified) [Compound 25071] | 50 | 63 | 48 | 36 | – | – | – | – | – | – | – | 53 | 42 | –
TE^MeCAACSATCSAGTCSTGAUSAAGCSTAE (TCAACATCAGTCTGATAAGCTA; listed as DNA, chemistry not fully specified) [Compound 25082] | – | – | 70 | 89 | demonstrated inhibition of miR-21 in a dose-dependent manner | – | – | – | – | – | – | – | – | Collagen 1A1 (Normalized Expression), individual animal [1]: 122.2 and 188.3 and 102.5 and 67.6 and 40.6 and 44.1 and 73.8 and 94.7; Collagen 3A1 (Normalized Expression), individual animal [1]: 62.9 and 78.9 and 82.2 and 43.8 and 32.6 and 34.3 and 75.8 and 62.5; reduction in collagen expression (in words) [1]: did not consistently demonstrate a reduction in collagen expression
Te^MeCASA^MeCAST^MeCAGST^MeCTGASTAAGS^MeCTAe (antisense TCAACATCAGTCTGATAAGCTA; all C 5-methyl, all phosphorothioate, sugars by position not given here; further chemistry not fully specified) [Compound 25067] | 43 | 41 | 38 | 23 | – | – | – | – | – | – | – | 30 | 42 | –
